In paper PMC9312901 (2022):

What was measured:
[1] = tested on: APT (3-O-C12-HSL aptamer) (DNA, aptamer) GCAATGGTACGGTACTTCCCGGGGCCCGCTTCTGGTGCGGTGTACTAGTGACCGCAAAAGTGCACGCTACTTTGCTAA; test: EIS aptasensor (C-SPE/AuNPs/APT/MCH); settings: 10 µM compound, 30 min, room temperature; [Fe(CN)6]3-/4- redox probe
[2] = tested on: APT (3-O-C12-HSL aptamer) (DNA, aptamer) GCAATGGTACGGTACTTCCCGGGGCCCGCTTCTGGTGCGGTGTACTAGTGACCGCAAAAGTGCACGCTACTTTGCTAA; test: SPR, steady-state affinity fit; settings: Na+ 100 mM; K+ 100 mM; Mg2+ 10 mM (TRIS buffer; running buffer printed only as 10 mM TRIS); 10 mM TRIS pH 7.4 running buffer; aptamer on gold chip, MCH blocked; 10-1000 nM
[3] = tested on: APT (3-O-C12-HSL aptamer) (DNA, aptamer) GCAATGGTACGGTACTTCCCGGGGCCCGCTTCTGGTGCGGTGTACTAGTGACCGCAAAAGTGCACGCTACTTTGCTAA; test: SPR, kinetic 1:1 Langmuir fit (kd/ka); settings: Na+ 100 mM; K+ 100 mM; Mg2+ 10 mM (TRIS buffer; running buffer printed only as 10 mM TRIS); 10 mM TRIS pH 7.4 running buffer; aptamer on gold chip, MCH blocked; 10-1000 nM
[4] = tested on: APT (3-O-C12-HSL aptamer) (DNA, aptamer) GCAATGGTACGGTACTTCCCGGGGCCCGCTTCTGGTGCGGTGTACTAGTGACCGCAAAAGTGCACGCTACTTTGCTAA; test: DPV on C-SPE/AuNPs/APT/MCH electrode; settings: 0.5 mM MB, 30 min; measured in 10 mM PBS pH 7.4; MB lost on successive blank incubations

binding [1]	SMILES	other results
weak	CCCC(=O)N[C@H]1CCOC1=O	
yes	CCCCCCCC(=O)CC(=O)N[C@H]1CCOC1=O	
	CCCCCCCCCC(=O)CC(=O)N[C@H]1CCOC1=O	KD,equilibrium [2]: 106.7 ± 9.3 nM; KD,kinetic [3]: 87.1 ± 10 nM
yes	CCCCCCCCCCCC(=O)N[C@H]1CCOC1=O	
	CN(C)c1ccc2nc3ccc(N(C)C)cc3[s+]c2c1	binding [4]: yes
